In patent publication US7396645B1, “Cholestasis signature” (priority 2002, dated 2008):
Like-named read-outs stand apart in the source and are kept apart here. Marks after values point to notes of the source that are not given here.

Key:
Cholestasis Signature = tested on: Cholestasis Signature
Description: (§1) After determination of the MTD and FED for a compound, each compound was dissolved in a vehicle for administration on day 1 of the study (additional daily doses were stored as frozen aliquots from this initial formulation). Each compound was administered to three individual male Sprague-Dawley rats for each of the two doses (MTD and FED) for one of four different times (0.25 day, 1 day, 3 days, and 5 days), yielding a total of up to 24 animals per compound study. Vehicle choice was based on solubility of the compound, effect of food on adsorption, and the vehicles used in the literature reports examined during the FED selection investigations, described above. Generally, the route and vehicle in which the FED was defined are used. When there was a choice of routes and vehicles, oral routes were chosen over injection routes. Many compounds, especially oncolytics, are only administerable intravenously. In such cases, the compound was administered as an intravenous formulation into the tail vein. Orally administered compounds were given dissolved in either water, 1% carboxymethycellulose (CMC) or corn oil. Intravenously and intraperitoneally administered compounds were given in 0.9% saline. Subcutaneously administered compounds were given in corn oil. Animal body weights were determined at 1 day and, where appropriate, at 4 days, before necropsy, and clinical observations were made on a daily basis. Control animals were dosed with vehicle only. Three male animals were used for each dose and time combination used for the compound treatment.
(§2) Tissue Harvest and Handling: After the allocated treatment time, the tissues from the animals were harvested. […] All the tissues collected were divided to provide samples for histopathological analyses, and the remainder of each tissue was then snap-frozen. […] The parameters were measured using a Hitachi-911 clinical chemistry analysis instrument according to the manufacturer's instructions. The following blood constituents were measured: Blood Urea Nitrogen (BUN), Creatinine (CRE), Glucose (GLU), Alanine Transaminase (ALT), Aspartate Aminotrans-ferase (AST), Alkaline Phosphatase (ALP), Total Bilirubin (TBI), Sodium (SOD), Potassium (POT), Chloride (CHL), Phosphorus (PHO), Total Protein (TPR), Albumin (ALB), Cholesterol (CHO), Creatine Phosphokinase (CPK), Lactate Dehydrogenase (LDH), Carbon Dioxide (CO2), Uric Acid (UA), and Lipase. […] The parameters were measured using a Baker 9000 blood cell analysis instrument according to the manufactures instructions. The following blood constituents were measured: Leukocyte count (WBC), Differential Leukocyte counts, Erythrocyte count (RBC), Hemoglobin concentration (HGB), Hematocrit (HCT), Mean Corpuscular Volume (MCV), Mean Corpuscular Hemoglobin (MCH), Mean Corpuscular Hemoglobin Concentration (MCC), Thrombocyte Count (PLC). Histopathology: Histopathological analyses of hematoxylin and eosin-stained tissue sections were performed and peer-reviewed by board-certified (Diplomate, American College of Veterinary Pathologists) veterinary pathologists. Preparation of Enriched mRNA: Punch Biopsies were Taken from the Frozen Tissues and were completely homogenized before being processed using the MagNA Pure robot. (Roche Diagnostics Corp., Indianapolis, Ind.) in combination with the MagNA Pure LC RNA Isolation kit II (Roche Diagnostics Corp). The amount of lysis buffer was adjusted to allow 1 ml per 50 mg for liver tissue, or 1 ml per 80 mg for all other tissues. After complete homogenization and before loading of the samples into the 32-well MagNA Pure plate, the samples were syringed 5-6 times using a 20-gauge 3-ml syringe to ensure a smooth solution for robotic processing. Tissue sample processing was performed in duplicate wells (loading 150 μl of homogenized sample and 150 μl of additional lysis buffer to each well) of the MagNA Pure LC, which is programmed to extract mRNA using oligo-dT selection technology into a final elution volume of 100 μl.

male Sprague-Dawley rats = details: rat
From the text: Compound dosing was based on the acute dose LD50s recorded in published reference or literature sources. […] The MTD (maximum tolerated dose) was then selected as the dose at which the animals […] 5-10% body weight during the 5-day range finding study. […] In addition, the clinical observations must show no or mild clinical signs during the whole of the range-finding study. At the next highest dose, signs and symptoms of adverse effects and exceeding those of the MTD should be seen to occur. Should these criteria not be met, the range-finding study is repeated using a modified dose range.
as §1
Tissue Harvest and Handling: After the allocated treatment time, the tissues from the animals were harvested. […] All the tissues collected were divided to provide samples for histopathological analyses, and the remainder of each tissue was then snap-frozen. […] The parameters were measured using a Hitachi-911 clinical chemistry analysis instrument according to the manufacturer's instructions. The following blood constituents were measured: Blood Urea Nitrogen (BUN), Creatinine (CRE), Glucose (GLU), Alanine Transaminase (ALT), Aspartate Aminotrans-ferase (AST), Alkaline Phosphatase (ALP), Total Bilirubin (TBI), Sodium (SOD), Potassium (POT), Chloride (CHL), Phosphorus (PHO), Total Protein (TPR), Albumin (ALB), Cholesterol (CHO), Creatine Phosphokinase (CPK), Lactate Dehydrogenase (LDH), Carbon Dioxide (CO2), Uric Acid (UA), and Lipase. […] The parameters were measured using a Baker 9000 blood cell analysis instrument according to the manufactures instructions. The following blood constituents were measured: Leukocyte count (WBC), Differential Leukocyte counts, Erythrocyte count (RBC), Hemoglobin concentration (HGB), Hematocrit (HCT), Mean Corpuscular Volume (MCV), Mean Corpuscular Hemoglobin (MCH), Mean Corpuscular Hemoglobin Concentration (MCC), Thrombocyte Count (PLC). Histopathology: Histopathological analyses of hematoxylin and eosin-stained tissue sections were performed and peer-reviewed by board-certified (Diplomate, American College of Veterinary Pathologists) veterinary pathologists.

livers of rats = details: for bile duct hyperplasia: in most animals
Description: as §1, §2

[1] = rat liver expression data vs Cholestasis Signature, maximum score of training treatments normalised to 100, dose and time not given
[2] = 81 mg/kg orally in corn oil, 5 days, vs vehicle control, average of 3 animals
[3] = rat liver histopathology, training-set treatments
[4] = 16 mg/kg orally in corn oil, 3 days, vs vehicle control, average of 3 animals

Compound | Sequence Projection Score (SPS) (Cholestasis Signature; rat, in vivo) | also measured
CC1=C(CC(=O)O)c2cc(F)ccc2/C1=C\c1ccc([S+](C)[O-])cc1 (stereo not shown) | 45* | –
CC(C)c1c(C(=O)Nc2ccccc2)c(-c2ccccc2)c(-c2ccc(F)cc2)n1CC[C@@H](O)C[C@@H](O)CC(=O)O (relative stereo) [ATORVASTATIN, (R—(R*,R*))-2-(4-fluorophenyl)-β,δ-dihydroxy-5-(1-methylethyl)-3-phenyl-4-((phenylamino)carbonyl)-1H-pyrrole-1-heptanoic acid] | 62* | raised serum levels of ALP and TBI compared with vehicle-treated control animals (male Sprague-Dawley rats; in vivo, po): at least 2 fold
S=C=Nc1cccc2ccccc12 [1-NAPHTHYL ISOTHIOCYANATE, 1-naphthyl isothiocyanate] | – | Sequence Projection Score (SPS) (Cholestasis Signature; [1]): 90**
Nc1ccc(Cc2ccc(N)cc2)cc1 [4,4′-DIAMINODIPHENYLMETHANE, 4,4′-diaminodiphenylmethane] | – | Fold change in serum alkaline phosphatase (male Sprague-Dawley rats; [2]): 1.6 fold; Fold change in serum alkaline phosphatase and total bilirubin (male Sprague-Dawley rats; [2]): 7.7 fold; Fold change in serum total bilirubin (male Sprague-Dawley rats; [2]): 4.9 fold; Sequence Projection Score (SPS) (Cholestasis Signature; [1]): 77**; bile duct hyperplasia (livers of rats; [3]): moderate
CCCCCCCCc1ccc(O)cc1 [4-OCTYLPHENOL] | – | Sequence Projection Score (SPS) (Cholestasis Signature; [1]): 22
C[C@]12CCC(=O)C=C1CC[C@@H]1[C@@H]2CC[C@@]2(C)[C@H]1CC[C@]2(C)O [17-METHYLTESTOSTERONE] | – | Sequence Projection Score (SPS) (Cholestasis Signature; [1]): 36*
C[C@]12CC[C@@H]3c4ccc(O)cc4CC[C@H]3[C@@H]1CC[C@@H]2O [BETA ESTRADIOL] | 26* | –
CC(C)(Oc1ccc(CCNC(=O)c2ccc(Cl)cc2)cc1)C(=O)O [BEZAFIBRATE] | 42* | –
Oc1c(Cl)cc(Cl)cc1Sc1cc(Cl)cc(Cl)c1O [BITHIONOL] | 23* | –
ClC(Cl)(Cl)Cl [CARBON TETRACHLORIDE] | – | Sequence Projection Score (SPS) (Cholestasis Signature; [1]): 50*
O=NN(CCCl)C(=O)NCCCl [CARMUSTINE, 1,3-bis(2-chloroethyl)-1-nitrosourea] | – | Fold change in serum alkaline phosphatase (male Sprague-Dawley rats; [4]): 1.7 fold; Fold change in serum alkaline phosphatase and total bilirubin (male Sprague-Dawley rats; [4]): 8.1 fold; Fold change in serum total bilirubin (male Sprague-Dawley rats; [4]): 4.6 fold; Sequence Projection Score (SPS) (Cholestasis Signature; [1]): 69*; increased hepatocyte enlargement and increased eosinophilic granular cytoplasm (livers of rats; [3]): mild to severe; nuclear/cytoplasmic condensation (apoptosis) and/or necrosis in liver (livers of rats; [3]): mild to moderate; bile duct hyperplasia (livers of rats; [3]): moderate
COCc1c(C(C)C)nc(C(C)C)c(/C=C/[C@@H](O)C[C@@H](O)CC(=O)O)c1-c1ccc(F)cc1 [CERIVASTATIN] | 36* | –
CCOC(=O)C(C)(C)Oc1ccc(Cl)cc1 [CLOFIBRATE] | 22 | –
C[C@@H]1C[C@H]2[C@@H]3CCC4=CC(=O)C=C[C@]4(C)[C@@]3(F)[C@@H](O)C[C@]2(C)[C@@]1(O)C(=O)CO [DEXAMETHASONE] | 32* | –
O=C(O)Cc1ccccc1Nc1c(Cl)cccc1Cl [DICLOFENAC] | 41* | –
C[C@]12CC[C@@H]3c4ccc(O)cc4CC[C@H]3[C@@H]1C[C@@H](O)[C@@H]2O [ESTRIOL] | 27* | –
CCO [ETHANOL] | – | raised serum levels of ALP and TBI compared with vehicle-treated control animals (male Sprague-Dawley rats; in vivo, po): at least 2 fold; Fold change in serum alkaline phosphatase (male Sprague-Dawley rats; in vivo, po, 3000 mg/kg): 1.5 fold; Fold change in serum alkaline phosphatase and total bilirubin (male Sprague-Dawley rats; in vivo, po, 3000 mg/kg): 3.1 fold; Fold change in serum total bilirubin (male Sprague-Dawley rats; in vivo, po, 3000 mg/kg): 2.0 fold; steatosis (livers of rats; rat, in vivo): moderate to very severe
C#C[C@]1(O)CC[C@H]2[C@@H]3CCc4cc(O)ccc4[C@H]3CC[C@@]21C [ETHINYLESTRADIOL] | 61* | –

Compound | Sequence Projection Score (SPS) (Cholestasis Signature; rat, in vivo) | also measured
CC(C)OC(=O)C(C)(C)Oc1ccc(C(=O)c2ccc(Cl)cc2)cc1 [FENOFIBRATE] | 43* | –
OC(Cn1cncn1)(Cn1cncn1)c1ccc(F)cc1F [FLUCONAZOLE] | 63* | –
CC(C)n1c(/C=C/C(O)CC(O)CC(=O)O)c(-c2ccc(F)cc2)c2ccccc21 (stereo not shown) [FLUVASTATIN] | 67* | –
CC(C)Cc1ccc(C(C)C(=O)O)cc1 (stereo not shown) [IBUPROFEN] | 33* | –
COc1ccc2c(c1)c(CC(=O)O)c(C)n2C(=O)c1ccc(Cl)cc1 [INDOMETHACIN] | 52* | –
CCC(C)n1ncn(-c2ccc(N3CCN(c4ccc(OCC5COC(Cn6cncn6)(c6ccc(Cl)cc6Cl)O5)cc4)CC3)cc2)c1=O (stereo not shown) [ITRACONAZOLE] | 17 | –
CC(=O)N1CCN(c2ccc(OCC3COC(Cn4ccnc4)(c4ccc(Cl)cc4Cl)O3)cc2)CC1 (stereo not shown) [KETOCONAZOLE] | 21 | –
CC[C@H](C)C(=O)O[C@H]1C[C@@H](C)C=C2C=C[C@H](C)[C@H](CC[C@@H]3C[C@@H](O)CC(=O)O3)[C@H]21 [LOVASTATIN] | 37* | –
Cc1cnc(NC(=O)C2=C(O)c3ccccc3S(=O)(=O)N2C)s1 [MELOXICAM] | 31* | –
CN(Cc1cnc2nc(N)nc(N)c2n1)c1ccc(C(=O)N[C@@H](CCC(=O)O)C(=O)O)cc1 [METHOTREXATE] | 17 | –
Clc1ccc(COC(Cn2ccnc2)c2ccc(Cl)cc2Cl)c(Cl)c1 (stereo not drawn) [MICONAZOLE, 1-[2,4-dichloro-β-(2,4-dichlorobenzyloxy)phenethyl]imidazole nitrate] | – | Sequence Projection Score (SPS) (Cholestasis Signature; [1]): 100**; increased hepatocyte enlargement and increased eosinophilic granular cytoplasm (livers of rats; [3]): mild to severe
CC#C[C@]1(O)CC[C@H]2[C@@H]3CCC4=CC(=O)CCC4=C3[C@@H](c3ccc(N(C)C)cc3)C[C@@]21C [MIFEPRISTONE] | 39* | –
CN(C)C=O [N,N-DIMETHYLFORMAMIDE] | – | Sequence Projection Score (SPS) (Cholestasis Signature; [1]): 27*
COc1ccc2cc([C@H](C)C(=O)O)ccc2c1 [NAPROXEN] | 48* | –
CS(=O)(=O)Nc1ccc([N+](=O)[O-])cc1Oc1ccccc1 [NIMESULIDE] | 38* | –
C#C[C@]1(OC(C)=O)CC[C@H]2[C@@H]3CCC4=CC(=O)CC[C@@H]4[C@H]3CC[C@@]21C [NORETHINDRONE ACETATE] | 23* | –
CS(=O)(=O)c1ccc(C2=C(c3ccccc3)C(=O)OC2)cc1 [ROFECOXIB] | 27* | –
Nc1nc2nc[nH]c2c(=S)[nH]1 [THIOGUANINE] | 19 | –
